The record followed here is patent US20220064316A1, “TREATMENT OF CANCER USING HUMANIZED ANTI-BCMA CHIMERIC ANTIGEN RECEPTOR” (The Trustees of the University of Pennsylvania, priority 2014, published 2022).

The test system of one data set is NALM6-luc tumors. Description: NALM6-luc tumor growth under daily oral RAD001. The note with it: daily oral dosing of RAD001 alone. The data set is classed as in vivo, NSG mice. The protocol:
NALM6-luc cells: The NALM6 human acute lymphoblastic leukemia (ALL) cell line was developed from the peripheral blood of a patient with relapsed ALL. The cells were then tagged with firefly luciferase. These suspension cells grow in RPMI supplemented with 10% heat inactivated fetal bovine serum.
Mice: 6 week old NSG (NOD.Cg-Prkdc^scidIl2rg^tm1Wjl/SzJ) mice were received from the Jackson Laboratory (stock number 005557).
Tumor implantation: NALM6-luc cells were grown and expanded in vitro in RPMI supplemented with 10% heat inactivated fetal bovine serum. The cells were then transferred to a 15 ml conical tube and washed twice with cold sterile PBS. NALM6-luc cells were then counted and resuspended at a concentration of 10×10^6 cells per milliliter of PBS. The cells were placed on ice and immediately (within one hour) implanted in the mice. NALM6-luc cells were injected intravenously via the tail vein in a 100 µl volume, for a total of 1×10^6 cells per mouse.
(§1) RAD001 dosing: A concentrated micro-emulsion of 50 mg equal to 1 mg RAD001 was formulated and then resuspended in D5W (dextrose 5% in water) at the time of dosing. Mice were orally dosed daily (via oral gavage) with 200 μl of the desired doses of RAD001.

In data set [1] the test system is humanized CD19 CART cells. Description: In vivo proliferation of humanized CD19 CART cells with and without RAD001 dosing. As to conditions: RAD001 0.003 mg/kg daily, with huCAR19. The protocol:
FIGS. 46A and 46B show in vivo proliferation of humanized CD19 CART cells with and without RAD001 dosing. […] Circles denote PBS; squares denote huCTL019; triangles denote huCTL019 with 3 mg/kg RAD001; inverted triangles denote huCTL019 with 0.3 mg/kg RAD001; diamonds denote huCTL019 with 0.03 mg/kg RAD001; and circles denote huCTL019 with 0.003 mg/kg RAD001.

Data set [2] relates to huCART19 cells co-cultured with Nalm-6. Description: huCART19 proliferation in 4 day co-culture with Nalm-6 in presence of RAD001. In kind it is cell-based, human. The source says: A humanized, anti-human CD19 CAR (huCART19) lentiviral transfer vector was used to produce the genomic material packaged into VSVg pseudotyped lentiviral particles. The amino acid and nucleotide sequence of the humanized anti-human CD19 CAR (huCART19) is CAR 1, ID 104875 described in PCT publication, WO2014/153270, filed Mar. 15, 2014, and is designated SEQ ID NOs. 85 and 31 therein.
Lentiviral transfer vector DNA is mixed with the three packaging components VSVg env, gag/pol and rev in combination with lipofectamine reagent to transfect Lenti-X 293T cells. Medium is changed after 24h and 30h thereafter, the virus-containing media is collected, filtered and stored at −80° C. CARTs are generated by transduction of fresh or frozen naïve T cells obtained by negative magnetic selection of healthy donor blood or leukopak. […] The percentage of cells transduced (expressing the CARs on the cell surface) and the level of CAR expression (relative fluorescence intensity, Geo Mean) are determined by flow cytometric analysis between days 7 and 9. […]
To evaluate the functionality of CARTs, the T cells are thawed and counted, and viability is assessed by Cellometer. […]
For measuring the proliferation of CARTs, T cells are cultured with target cells at a ratio of 1:1. […] The number of T cells is assessed by flow cytometry using counting beads as reference.

Data set [3] is described as follows: RAD001 PK analysis in blood of NALM6-luc tumor bearing mice. The data set is classed as in vivo, NSG mice. The protocol:
as §1
PK analysis: Mice were dosed daily with RAD001 starting 7 days post tumor implantation. Dosing groups were as follows: 0.3 mg/kg, 1 mg/kg, 3 mg/kg, and 10 mg/kg. Mice were bled on days 0 and 14 following the first and last dose of RAD001, at the following time points for PK analysis: 15 minutes, 30 minutes, 1 hour, 2 hours, 4 hours, 8 hours, 12 hours, and 24 hours.

The subject of a further data set is huCAR19 CAR T cells. Description: huCAR19 CAR T cell expansion in vivo with RAD001 (FACS). The arrangement: species or system NSG mice. As to conditions: lowest doses of RAD001, daily oral; more evident with CD4+ than CD8+ CAR T cells. How it is done: CAR T cell dosing: Mice were administered 5×10^6 CAR T cells 7 days after tumor implantation. Cells were partially thawed in a 37 degree Celsius water bath and then completely thawed by the addition of 1 ml of cold sterile PBS to the tube containing the cells. The thawed cells were transferred to a 15 ml falcon tube and adjusted to a final volume of 10 mls with PBS. The cells were washed twice at 1000 rpm for 10 minutes each time and then counted on a hemocytometer. T cells were then resuspended at a concentration of 50×10^6 CAR T cells per ml of cold PBS and kept on ice until the mice were dosed. The mice were injected intravenously via the tail vein with 100 μl of the CAR T cells for a dose of 5×10^6 CAR T cells per mouse. Eight mice per group were treated either with 100 μl of PBS alone (PBS), or humanized CD19 CAR T cells.
as §1
Based on these doses, huCAR19 CAR T cells were dosed with and without RAD001 to determine the proliferative ability of these cells. The highest dose used was 3 mg/kg based on the levels of RAD001 in the blood 24 hours after dosing. […] Mice were monitored via FACS for T cell expansion.

In data set [4] the test system is CAR-expressing, transduced T cells. Description: Proliferation of CARTs co-cultured with Nalm-6 cells in presence of RAD001. In kind it is cell-based. The note with it: low doses of RAD001, 4 days of co-culture with Nalm-6 cells. The protocol: CARTs were co-cultured with Nalm-6 cells in the presence of different concentrations of RAD001. The number of CAR-positive CD3-positive T cells (black) and total T cells (gray) was assessed after 4 days of co-culture.

For the compound `CO[C@H]1C[C@@H]2CC[C@@H](C)[C@@](O)(O2)C(=O)C(=O)N2CCCC[C@H]2C(=O)O[C@H]([C@H](C)C[C@@H]2CC[C@@H](OCCO)[C@H](OC)C2)CC(=O)[C@H](C)/C=C(\C)[C@@H](O)[C@@H](OC)C(=O)[C@H](C)C[C@H](C)/C=C/C=C/C=C/1C` [RAD001, (1R,9S,12S,15R,16E,18R,19R,21R,23 S,24E,26E,28E,30S,32S,35R)-1,18-dihydroxy-12-{(1R)-2-[(1S,3R,4R)-4-(2-hydroxyethoxy)-3-methoxycyclohexyl]-1-methylethyl}-19,30-dimethoxy-15,17,21,23,29,35-hexamethyl-11,36-dioxa-4-aza-tricyclo[30.3.1.04,9]hexatriaconta-16,24,26,28-tetraene-2,3,10,14,20-pentaone], the “growth of NALM6-luc tumors” value in the data set on NALM6-luc tumors is “did not have an impact”. For the same compound, in data set [1], the “CAR T cell proliferation in vivo” value is “enhancement in CAR T cell proliferation”. Also, in data set [2] (0.0032 and 0.016 nM RAD001), the “huCART19 proliferation versus no RAD001” value is “higher than observed without the addition of RAD001”. In addition, the “RAD001 concentration at which huCART19 cells expanded” value in data set [2] (4 day co-culture with Nalm-6, 1:1, lesser extent at higher concentrations) was “less than 0.016 nM”. Also, in data set [3] (NSG, mouse, whole blood, 24 hours after dosing, 0.3 mg/kg oral daily, day 0 and day 14, read-out: RAD001 concentrations in the blood), the concentration at 24 h is above 10 nM. The “stability in the blood” value in data set [3] (tumor bearing mice, FIGS. 45A, 45B) was “fairly stable”. In addition, the “proliferation of the CAR T cells in vivo” value in the data set with huCAR19 CAR T cells is on record as “enhanced proliferation”. Besides, the “proliferation of CAR-expressing, transduced T cells” value in data set [4] was “enhanced”.
